CC(=O)Oc1ccc(C2CC(=O)c3c(OC(C)=O)cc(OC(C)=O)cc3O2)cc1 (stereo not given)
solubility (mole fraction) (in 2-butoxyethanol, 278.2 K): 0.0018 | solubility (mole fraction) (in 2-butoxyethanol, 288.2 K): 0.00253 | solubility (mole fraction) (in 2-butoxyethanol, 298.2 K): 0.00337 | solubility (mole fraction) (in 2-butoxyethanol, 308.2 K): 0.00476 | solubility (mole fraction) (in 2-butoxyethanol, 318.2 K): 0.00712 | solubility (mole fraction) (in 2-methoxyethanol, 278.2 K): 0.00836 | solubility (mole fraction) (in 2-methoxyethanol, 288.2 K): 0.0108 | solubility (mole fraction) (in 2-methoxyethanol, 298.2 K): 0.0174 | solubility (mole fraction) (in 2-methoxyethanol, 308.2 K): 0.0235 | solubility (mole fraction) (in 2-methoxyethanol, 318.2 K): 0.0356 | solubility (mole fraction) (in 2-propoxyethanol, 278.2 K): 0.00485 | solubility (mole fraction) (in 2-propoxyethanol, 288.2 K): 0.00629 | solubility (mole fraction) (in 2-propoxyethanol, 298.2 K): 0.00775 | solubility (mole fraction) (in 2-propoxyethanol, 308.2 K): 0.00887 | solubility (mole fraction) (in 2-propoxyethanol, 318.2 K): 0.0116 | solubility (mole fraction) (in THF, 278.2 K): 0.0413 | solubility (mole fraction) (in THF, 288.2 K): 0.0483 | solubility (mole fraction) (in THF, 298.2 K): 0.058 | solubility (mole fraction) (in THF, 308.2 K): 0.0732 | solubility (mole fraction) (in THF, 318.2 K): 0.0902 | solubility (mole fraction) (in acetone, 278.2 K): 0.0759 | solubility (mole fraction) (in acetone, 288.2 K): 0.0869 | solubility (mole fraction) (in acetone, 298.2 K): 0.11 | solubility (mole fraction) (in acetone, 308.2 K): 0.129 | solubility (mole fraction) (in acetone, 318.2 K): 0.166 | solubility (mole fraction) (in ethanol, 278.2 K): 0.000721 | solubility (mole fraction) (in ethanol, 288.2 K): 0.000931 | solubility (mole fraction) (in ethanol, 298.2 K): 0.00132 | solubility (mole fraction) (in ethanol, 308.2 K): 0.00175 | solubility (mole fraction) (in ethanol, 318.2 K): 0.00239 | solubility (mole fraction) (in ethyl acetate, 278.2 K): 0.022 | solubility (mole fraction) (in ethyl acetate, 288.2 K): 0.034 | solubility (mole fraction) (in ethyl acetate, 298.2 K): 0.045 | solubility (mole fraction) (in ethyl acetate, 308.2 K): 0.0714 | solubility (mole fraction) (in ethyl acetate, 318.2 K): 0.103 | solubility (mole fraction) (in isopropanol, 278.2 K): 0.000289 | solubility (mole fraction) (in isopropanol, 288.2 K): 0.000426 | solubility (mole fraction) (in isopropanol, 298.2 K): 0.000667 | solubility (mole fraction) (in isopropanol, 308.2 K): 0.00102 | solubility (mole fraction) (in isopropanol, 318.2 K): 0.00152 | solubility (mole fraction) (in methanol, 278.2 K): 0.00122 | solubility (mole fraction) (in methanol, 288.2 K): 0.00155 | solubility (mole fraction) (in methanol, 298.2 K): 0.00217 | solubility (mole fraction) (in methanol, 308.2 K): 0.00289 | solubility (mole fraction) (in methanol, 318.2 K): 0.00407 | solubility (mole fraction) (in n-butanol, 278.2 K): 0.000228 | solubility (mole fraction) (in n-butanol, 288.2 K): 0.000353 | solubility (mole fraction) (in n-butanol, 298.2 K): 0.000491 | solubility (mole fraction) (in n-butanol, 308.2 K): 0.000752 | solubility (mole fraction) (in n-butanol, 318.2 K): 0.00106 | solubility (mole fraction) (in n-hexanol, 278.2 K): 1.8e-05 | solubility (mole fraction) (in n-hexanol, 288.2 K): 2.4e-05 | solubility (mole fraction) (in n-hexanol, 298.2 K): 3e-05 | solubility (mole fraction) (in n-hexanol, 308.2 K): 4.6e-05 | solubility (mole fraction) (in n-hexanol, 318.2 K): 6.4e-05 | solubility (mole fraction) (in n-pentanol, 278.2 K): 0.000249 | solubility (mole fraction) (in n-pentanol, 288.2 K): 0.000402 | solubility (mole fraction) (in n-pentanol, 298.2 K): 0.000556 | solubility (mole fraction) (in n-pentanol, 308.2 K): 0.00101 | solubility (mole fraction) (in n-pentanol, 318.2 K): 0.00141 | solubility (mole fraction) (in n-propanol, 278.2 K): 0.000649 | solubility (mole fraction) (in n-propanol, 288.2 K): 0.000873 | solubility (mole fraction) (in n-propanol, 298.2 K): 0.00127 | solubility (mole fraction) (in n-propanol, 308.2 K): 0.00165 | solubility (mole fraction) (in n-propanol, 318.2 K): 0.00245 | solubility (mole fraction) (in sec-butanol, 278.2 K): 0.000216 | solubility (mole fraction) (in sec-butanol, 288.2 K): 0.000372 | solubility (mole fraction) (in sec-butanol, 298.2 K): 0.000507 | solubility (mole fraction) (in sec-butanol, 308.2 K): 0.000824 | solubility (mole fraction) (in sec-butanol, 318.2 K): 0.00122

From BigSolDB 2.1
